Tests used:
[1] = target: T1, ADP-ribosyl cyclase/cyclic ADP-ribose hydrolase [1-303] (Blood fluke, UniProt Q32TF5); test: NAD glycohydrolase assay; conditions: pH 7.4; 37 °C
T1 construct: 1-303
T1 sequence (Q32TF5 whole entry): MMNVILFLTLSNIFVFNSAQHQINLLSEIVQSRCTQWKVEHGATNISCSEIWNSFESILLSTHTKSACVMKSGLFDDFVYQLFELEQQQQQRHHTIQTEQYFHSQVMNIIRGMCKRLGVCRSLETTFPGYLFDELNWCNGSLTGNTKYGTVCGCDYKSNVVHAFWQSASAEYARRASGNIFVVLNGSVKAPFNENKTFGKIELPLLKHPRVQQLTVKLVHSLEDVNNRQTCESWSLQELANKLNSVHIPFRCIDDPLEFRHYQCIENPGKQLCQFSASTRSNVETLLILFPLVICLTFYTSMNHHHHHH
Description: (§1) SmNACE activity and inhibition were measured with a sensitive, continuous, fluorometric assay platform that used 1,N6-ethenonicotinamide adenine dinucleotide (εNAD; Sigma-Aldrich, Inc.) as a substrate. This assay consists of measuring the appearance of the fluorescent εADP-ribose reaction product with excitation (λexc) and emission (λem) wavelengths of 310 and 410 nm, respectively, at 37 °C using the thermostatically controlled Spectramax Gemini XPS fluorescence plate reader (100 uL reaction volume; Molecular Devices, LLC) or the thermostatically controlled RF-5301PC spectrofluorophotometer (1 mL reaction volume; Shimadzu Scientific Instruments). The biochemical assay with 100 ug/mL of recombinant SmNACE was carried out in a 10 mM potassium phosphate buffer, at pH 7.4, containing 0.05% (w/v) emulphogen.

[2] = target: T2, ADP-ribosyl cyclase/cyclic ADP-ribose hydrolase (Blood fluke, UniProt Q32TF5); test: NAD glycohydrolase assay; conditions: pH 7.4; 37 °C
T2 sequence (Q32TF5 whole entry): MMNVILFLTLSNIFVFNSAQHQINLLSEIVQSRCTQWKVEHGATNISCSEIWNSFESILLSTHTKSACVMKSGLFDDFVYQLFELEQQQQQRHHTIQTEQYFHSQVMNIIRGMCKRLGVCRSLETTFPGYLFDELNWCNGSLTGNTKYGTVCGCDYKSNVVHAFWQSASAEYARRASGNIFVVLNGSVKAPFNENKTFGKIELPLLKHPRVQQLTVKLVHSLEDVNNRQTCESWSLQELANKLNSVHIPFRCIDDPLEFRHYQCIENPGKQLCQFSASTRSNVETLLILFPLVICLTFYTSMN
Description: as §1

Structure (SMILES) | IC50 [1] [nM] | IC50 [2] [nM]
Cc1occc1C(=O)N/N=C/c1ccc(O)c(O)c1 [SmNACE inhibitor, 1] | 88000 | 69000
Cc1occc1C(=O)N/N=C/c1cc(Cl)ccc1O [SmNACE inhibitor, 2] | 33 | 126
O=C(Nc1nc(=O)c2ccccc2s1)c1ccco1 [SmNACE inhibitor, 3] | 2200 | > 20000
Cc1ccc2c(c1)C[N]1NC(C3CCOC3C)[O][Zn+]1[O]2 (stereo not drawn) [Zn(II) complex of 2] | 330 | > 200000
